Like-named read-outs stand apart in the source and are kept apart here.
What was measured:
[1] = target: T1, Gal-3 (Homo sapiens, UniProt P17931); assay: competitive fluorescence polarisation assay, Gal-3; format: binding; set-up: key to Kd (Galectin-3): n. s.: n.s. = non-soluble at tested concentration; n. b.: n.b. = non-binding up to the highest tested concentration of 1500 µM; conditions: for Kd (Galectin-3) / Kd: competitive FP; for Gal-3 selectivity ratio Kd (Gal-3)/Kd (Gal-8N): ratio of FP Kd values
T1 construct: made in house
Method: (§1) Human galectins-1, -3, and -8N were expressed and purified as described previously[8],[23],[24]. Competitive fluorescence polarization assays were performed with a PHERAstar FS plate reader with software PHERAstar Mars version 2.10 R3 (BMG, Offenburg, Germany) and Tecan Spark multimode microplate reader (Tecan Trading AG, Switzerland), where a fluorescence anisotropy of fluorescent-tagged probes was measured by excitation at 485 nm and emission at 520 nm. Experiments were performed at 20 °C with Gal-1 at 0.5 µM, Gal-3 at 0.2 µM, and Gal-8N at 0.4 µM. Fluorescent probes used for experiments were 3,3′-dideoxy-3-[4-(fluorescein-5-yl-carbonylaminomethyl)-1H-1,2,3-triazol-1-yl]-3′-(3,5-di-methoxybenzamido)-1,1′-sulfanediyl-di-β-D-galactopyranoside at 0.02 µM for Gal-1 and -3 and 2-(fluorescein-5-yl-carbonylamino)ethyl β-D-galactopyranosyl(1-4)-2-acetamido-2-deoxy-β-D-glucopyranosyl(1–3)-β-D-galactopyranosyl(1–4)-β-D-glucopyranoside at 0.1 µM for Gal-8N in each well. Compounds were first dissolved in pure DMSO at 20 mM concentration and later diluted in 5% DMSO in PBS solution to 5-7 different concentrations. Each concentration was tested in duplicate. The highest inhibitor concentrations tested were 1.5 mM. The average values of Kd and SEM (standard error mean) were calculated from 4 to 8 duplicate measurements, showing 10–90% inhibition.

[2] = target: T2, Gal-8N (galectin-8 N-terminal domain) (Homo sapiens, UniProt O00214); assay: competitive fluorescence polarisation assay, Gal-8N; format: binding; set-up: key to Kd (Galectin-8N): n. s.: n.s. = non-soluble at tested concentration; n. b.: n.b. = non-binding up to the highest tested concentration of 1500 µM; conditions: competitive FP
T2 construct: made in house
T2 sequence (O00214 19-152 limits assumed): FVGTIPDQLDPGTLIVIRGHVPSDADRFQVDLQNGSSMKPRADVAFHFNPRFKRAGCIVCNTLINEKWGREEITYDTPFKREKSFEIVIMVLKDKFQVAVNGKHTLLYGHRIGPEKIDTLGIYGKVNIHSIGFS
Method: as §1

[3] = target: T3, Gal-8C (Homo sapiens, UniProt O00214); assay: competitive fluorescence polarisation assay, Gal-8C; format: binding; conditions: for Kd: competitive FP, mean ± SEM of n = 4 to 8; for Gal-8C selectivity ratio Kd (Gal-8C)/Kd (Gal-8N): ratio of FP Kd values
T3 construct: than to the C-terminal domain (Gal-8C)
T3 sequence (O00214 187-317 limits assumed): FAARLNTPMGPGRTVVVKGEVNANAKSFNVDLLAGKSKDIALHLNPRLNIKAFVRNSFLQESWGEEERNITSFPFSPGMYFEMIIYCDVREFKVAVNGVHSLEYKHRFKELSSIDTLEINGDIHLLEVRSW

[4] = target: T4, Gal-1 (Homo sapiens, UniProt P09382); assay: competitive fluorescence polarisation assay, Gal-1; format: binding; conditions: for Kd: competitive FP, mean ± SEM of n = 4 to 8, 20 °C; for Gal-1 selectivity ratio Kd (Gal-1)/Kd (Gal-8N): ratio of FP Kd values
T4 construct: made in house
Method: as §1

[5] = target: T5, Gal-8N (Homo sapiens, UniProt O00214); assay: ligand efficiency (LE) and ligand-lipophilicity efficiency (LLE) calculations; conditions: for LLE: from Gal-8N Kd and clogP; for LE: from Gal-8N Kd and number of non-hydrogen atoms
T5 construct: consisting of residues 4-158 was produced by Lund Protein Production Platform; made in house; host or cells: E. coli TUNER(DE3)
T5 sequence (O00214 4-158): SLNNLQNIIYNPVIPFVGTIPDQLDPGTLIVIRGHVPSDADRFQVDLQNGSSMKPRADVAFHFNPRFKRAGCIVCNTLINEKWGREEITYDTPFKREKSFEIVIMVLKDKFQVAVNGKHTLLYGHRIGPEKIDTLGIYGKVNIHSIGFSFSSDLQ

[6] = ester compounds, highest tested concentration 1500 µM
[7] = ester compounds, highest tested concentration 1500 µM, read-out: Kd (Galectin-3)
[8] = ester compounds, highest tested concentration 1500 µM, read-out: Kd (Galectin-8N)
[9] = mean ± SEM of n = 4 to 8, 20 °C, read-out: Kd Gal-3
[10] = mean ± SEM of n = 4 to 8, 20 °C, read-out: Kd Gal-8N

T1 sequence (P17931 whole entry): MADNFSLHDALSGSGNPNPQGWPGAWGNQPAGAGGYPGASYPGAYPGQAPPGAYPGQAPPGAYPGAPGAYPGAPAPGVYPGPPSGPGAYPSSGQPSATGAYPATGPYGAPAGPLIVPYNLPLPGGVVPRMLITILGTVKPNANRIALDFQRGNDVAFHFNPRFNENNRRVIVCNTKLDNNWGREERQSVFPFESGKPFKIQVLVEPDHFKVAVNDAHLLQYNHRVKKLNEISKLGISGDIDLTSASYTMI
T4 sequence (P09382 whole entry): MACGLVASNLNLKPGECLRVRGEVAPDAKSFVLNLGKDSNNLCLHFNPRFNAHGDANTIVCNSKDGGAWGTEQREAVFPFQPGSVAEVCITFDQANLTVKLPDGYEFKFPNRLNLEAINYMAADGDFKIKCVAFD

Row | SMILES | Kd (Galectin-3) [1, 6] | Kd (Galectin-8N) [2, 6] | Kd [2, 8] [µM] | Kd [1, 9] [µM] | Gal-3 selectivity ratio Kd (Gal-3)/Kd (Gal-8N) [1] | Kd [3] [µM] | Gal-8C selectivity ratio Kd (Gal-8C)/Kd (Gal-8N) [3] | Kd [2, 10] [µM] | Kd [4] [µM] | Gal-1 selectivity ratio Kd (Gal-1)/Kd (Gal-8N) [4] | LLE [5] | LE [5] | further results
1 | COC(=O)c1ccc2nc(CO[C@H]3[C@@H](O)[C@@H](CO)O[C@H](Sc4ccc(Cl)c(Cl)c4)[C@@H]3OCc3ccccc3)n(C)c2c1 [Compound 7a] | n. s. | n. s. |  |  |  |  |  |  |  |  |  |  | 
2 | COC(=O)c1ccc2nc(CO[C@H]3[C@@H](O)[C@@H](CO)O[C@H](Sc4ccc(Cl)c(Cl)c4)[C@@H]3OCc3cccc(C)c3)n(C)c2c1 [Compound 7b] | n. s. | n. s. |  |  |  |  |  |  |  |  |  |  | 
3 | COC(=O)c1ccc2nc(CO[C@H]3[C@@H](O)[C@@H](CO)O[C@H](Sc4ccc(Cl)c(Cl)c4)[C@@H]3OCc3ccc(C)cc3)n(C)c2c1 [Compound 7c] | n. s. | n. s. |  |  |  |  |  |  |  |  |  |  | 
4 | COC(=O)c1ccc2nc(CO[C@H]3[C@@H](O)[C@@H](CO)O[C@H](Sc4ccc(Cl)c(Cl)c4)[C@@H]3OCc3ccc(F)cc3)n(C)c2c1 [Compound 7d] | n. s. | n. s. |  |  |  |  |  |  |  |  |  |  | 
5 | COC(=O)c1ccc2nc(CO[C@H]3[C@@H](O)[C@@H](CO)O[C@H](Sc4ccc(Cl)c(Cl)c4)[C@@H]3OCc3ccc(Cl)c(Cl)c3)n(C)c2c1 [Compound 7e] |  |  | > 1500 |  |  |  |  |  |  |  |  |  | Kd [1, 7]: > 1500 µM
6 | COC(=O)c1ccc2nc(CO[C@H]3[C@@H](O)[C@@H](CO)O[C@H](Sc4ccc(Cl)c(Cl)c4)[C@@H]3OCc3cccc(Cl)c3)n(C)c2c1 [Compound 7f] |  |  | > 1500 |  |  |  |  |  |  |  |  |  | Kd [1, 7]: > 1500 µM
7 | Cn1c(CO[C@H]2[C@@H](O)[C@@H](CO)O[C@H](Sc3ccc(Cl)c(Cl)c3)[C@@H]2OCc2ccccc2)nc2ccc(C(=O)O)cc21 [Compound 8a] |  |  |  | 3.7 ± 0.5 | 2.5 | 320 ± 12 | 213 | 1.5 ± 0.13 | 14 ± 0.82 | 9.4 | 0.382 | 0.195 (kcal/mol)/heavy atom | 
8 | Cc1cccc(CO[C@@H]2[C@@H](OCc3nc4ccc(C(=O)O)cc4n3C)[C@@H](O)[C@@H](CO)O[C@@H]2Sc2ccc(Cl)c(Cl)c2)c1 [Compound 8b] |  |  |  | 8.2 ± 0.7 | 3.9 | 303 ± 19 | 144 | 2.1 ± 0.1 | 19 ± 0.67 | 9 | -0.257 | 0.185 (kcal/mol)/heavy atom | 
9 | Cc1ccc(CO[C@@H]2[C@@H](OCc3nc4ccc(C(=O)O)cc4n3C)[C@@H](O)[C@@H](CO)O[C@@H]2Sc2ccc(Cl)c(Cl)c2)cc1 [Compound 8c] |  |  |  | 5.9 ± 0.6 | 2.8 | 256 ± 24 | 122 | 2.1 ± 0.15 | 16 ± 0.75 | 7.6 | -0.259 | 0.185 (kcal/mol)/heavy atom | 
10 | Cn1c(CO[C@H]2[C@@H](O)[C@@H](CO)O[C@H](Sc3ccc(Cl)c(Cl)c3)[C@@H]2OCc2ccc(F)cc2)nc2ccc(C(=O)O)cc21 [Compound 8d] |  |  |  | 4.2 ± 0.6 | 2.6 | 301 ± 28 | 188 | 1.6 ± 0.06 | 14 ± 1.2 | 8.8 | 0.203 | 0.189 (kcal/mol)/heavy atom | 
11 | Cn1c(CO[C@H]2[C@@H](O)[C@@H](CO)O[C@H](Sc3ccc(Cl)c(Cl)c3)[C@@H]2OCc2ccc(Cl)c(Cl)c2)nc2ccc(C(=O)O)cc21 [Compound 8e] |  |  |  | 12 ± 3 | 2.8 | 577 ± 4 | 134 | 4.3 ± 0.4 | 20 ± 0.84 | 4.7 | -1.38 | 0.171 (kcal/mol)/heavy atom | 
12 | Cn1c(CO[C@H]2[C@@H](O)[C@@H](CO)O[C@H](Sc3ccc(Cl)c(Cl)c3)[C@@H]2OCc2cccc(Cl)c2)nc2ccc(C(=O)O)cc21 [Compound 8f] |  |  |  | 5.8 ± 0.7 | 3.2 | 225 ± 37 | 125 | 1.8 ± 0.18 | 15 ± 1.3 | 8.3 | -0.422 | 0.187 (kcal/mol)/heavy atom | 
13 | C#CCO[C@@H]1[C@@H](OCc2nc3ccc(C(=O)OC)cc3n2C)[C@@H](O)[C@@H](CO)O[C@@H]1Sc1ccc(Cl)c(Cl)c1 [Compound 10] | n. s. |  | 275 ± 5 |  |  |  |  |  |  |  |  |  | 
14 | COC(=O)c1ccccc1-n1cc(CO[C@@H]2[C@@H](OCc3nc4ccc(C(=O)O)cc4n3C)[C@@H](O)[C@@H](CO)O[C@@H]2Sc2ccc(Cl)c(Cl)c2)nn1 [Compound 15a] |  |  |  | 4.7 ± 1 | 1.3 | 355 ± 57 | 101 | 3.5 ± 0.37 | 69 ± 9.5 | 19.7 | 0.182 | 0.149 (kcal/mol)/heavy atom | 
15 | COC(=O)c1ccc2nc(CO[C@H]3[C@@H](O)[C@@H](CO)O[C@H](Sc4ccc(Cl)c(Cl)c4)[C@@H]3OCC3CCCCC3)n(C)c2c1 [Compound 18] | n. s. | n. s. |  |  |  |  |  |  |  |  |  |  | 
16 | COC(=O)c1ccc2nc(CO[C@H]3[C@@H](O)[C@@H](CO)O[C@H](Sc4ccc(Cl)c(Cl)c4)[C@@H]3OCC3CC3)n(C)c2c1 [Compound 21] | n. s. |  | > 1500 |  |  |  |  |  |  |  |  |  | 
17 | COC(=O)c1ccc2nc(CO[C@H]3[C@@H](O)[C@@H](CO)O[C@H](Sc4ccc(Cl)c(Cl)c4)[C@@H]3OCC3CCC3)n(C)c2c1 [Compound 24] | n. s. | n. s. |  |  |  |  |  |  |  |  |  |  | 
18 | COC(=O)c1ccc2nc(CO[C@H]3[C@@H](O)[C@@H](CO)O[C@H](Sc4ccc(Cl)c(Cl)c4)[C@@H]3OCC(=O)OC(C)(C)C)n(C)c2c1 [Compound 27] | n. s. |  | 201.7 ± 1.3 |  |  |  |  |  |  |  |  |  | 
19 | COC(=O)c1ccc2nc(CO[C@H]3[C@@H](O)[C@@H](CO)O[C@H](Sc4ccc(Cl)c(Cl)c4)[C@@H]3OCC(=O)O)n(C)c2c1 [Compound 28] |  |  | 7.7 ± 0.3 |  |  |  |  |  | 44.7 ± 4.9 |  |  |  | Kd [1, 7]: 8.5 ± 1.5 µM
20 | COC(=O)c1ccc2nc(CO[C@H]3[C@@H](O)[C@@H](CO)O[C@H](Sc4ccc(Cl)c(Cl)c4)[C@@H]3OC)n(C)c2c1 [Compound 31] |  | n. s. |  |  |  |  |  |  |  |  |  |  | Kd [1, 7]: 109 ± 31 µM

Source: PMC11850616, “Nanomolar inhibitor of the galectin-8 N-terminal domain binds via a non-canonical cation-π interaction” (Communications Chemistry, 2025)
